# Results: patent publication US20030203356A1, “RNase L activator-antisense complexes” (priority 2002, published 2003)
# pEC50: −log10 of the molar value. Where two headings read alike, the source gives them in different places. Oligonucleotides are written 5' to 3', each unit as a sugar letter and its base; * is a phosphorothioate linkage, no mark a phosphodiester; rarer units and linkages stand in square brackets, end groups in braces. Plain capitals give the bases only. {spA4} = thiophosphorylated 2',5'-linked tetraadenylate (2-5A), RNase L activator; {spA3} = thiophosphorylated 2',5'-linked triadenylate (2-5A), RNase L activator; {S9} = spacer 9 linker, triethylene glycol phosphate; {BU2} = two butanediol phosphate linkers; m = 2'-O-methyl
# System: RSV
# Experiment: anti-RSV activity in infected HEp-2 cells (reduction of cytopathic effects, neutral red uptake assay)
# Type: cell-based, Respiratory Syncytial Virus
# Conditions: for pEC50: HEp-2 cells, MOI=0.02, treatment one hour post-infection, read-out: EC50, concentration at which there was a 50% reduction in the observable cytopathic effects of infection; for EC50: HEp-2 cells infected with RSV, MOI=0.02, treatment begun one hour post-infection, read-out: EC50 in μM (50% Effective dose based on neutral red uptake assay)
# Text: A comparison of the efficacies of RBI245 treatment and conventional ribarvirin treatment can be obtained by determining the RSV-inhibitory concentration and the cytotoxic concentration of each compound. Cultures of the human laryngeal carcinoma cell line HEp-were established and infected with an MOI=0.02. Treatment with either ribavirin or RBI245 was begun one hour post-infection. The effects of treatment on RSV infection were reported as an EC50, the concentration at which there was a 50% reduction in the observable cytopathic effects of infection. The results of the treatment of HEp-2 cells with RBI245, ribavirin, and other activator-antisense complexes are shown in FIG. 1 and summarized in Table 2. […] Therefore, the activity of RBI245 in vitro is more than 1000-fold better than ribavarin, the only approved drug for the treatment of RSV. No toxicity was found for any of the 2-5A oligonucleotide compounds up to the maximum dosage tested (3.2 μM).
# [1] = human respiratory syncytial virus, 1 h
compound,measurement,setting,value
"5′sp-A2′s5′A2′s5′A2′s5′A2′-p(CH2CH2O)3-p-5′(AsAsAsAAUGGGGCAAAsUsAsA)m03′ (antisense {spA4}-{S9}-mA*mA*mA*mAmAmUmGmGmGmGmCmAmAmA*mU*mA*mA; 5' 2-5A activator attached via triethylene glycol linker, further chemistry not given here) [RBI245]",pEC50,,7.70
same,anti-RSV activity in vitro relative to ribavirin,ratio of in vitro potency versus ribavirin,more than 1000 fold
"NC(=O)c1ncn([C@@H]2O[C@H](CO)[C@@H](O)[C@H]2O)n1 [Ribavirin, reference compound]",EC50,[1],60 µM
same,pEC50,[1],4.22
"(spA)3-S9-(AsAsAsAAUGGGGCAsAsA)m-3′ ({spA3}-{S9}-mA*mA*mA*mAmAmUmGmGmGmGmCmA*mA*mA; antisense; 5' 2-5A activator attached via linker) [RBI243, shortened version of 245]",EC50,,0.3 µM
spA4-BU2-(AsAsAsAAUGGGGCAAAsUsAsA)m3′ ({spA4}-{BU2}-mA*mA*mA*mAmAmUmGmGmGmGmCmAmAmA*mU*mA*mA; antisense; 5' 2-5A activator attached via linker) [RBI034],EC50,,0.6 µM
"spA4-BU2-(GsAsTsAGAAATAGAAAsGsCsA)m-3′ (GATAGAAATAGAAAGCA; antisense; all 2'-O-methyl, linkages s3 o10 s3 (s phosphorothioate, o phosphodiester), 5' {spA4}-{BU2}, T or U not given here; 5' 2-5A activator attached via linker) [RBI066, scrambled control, reference compound]",EC50,,> 3.2 µM
